Measurements published in US6399349B1, “Human aminopeptidase P gene” (priority 1997, dated 2002).
Read-outs that look alike come from different tables or passages of the source. Where no end group is shown, it is not given here. [ ]: non-standard residue; d: D form. Hyp = O=C(O)[C@@H]1C[C@@H](O)CN1

Assays:
[1] = target: T1, Pig kidney AmP (Sus scrofa, UniProt Q95333); conditions: concentration that derivatizes two H residues per molecule of AmP; cited from earlier work
T1 construct: host or cells: pig kidney
T1 sequence (Q95333 22-649): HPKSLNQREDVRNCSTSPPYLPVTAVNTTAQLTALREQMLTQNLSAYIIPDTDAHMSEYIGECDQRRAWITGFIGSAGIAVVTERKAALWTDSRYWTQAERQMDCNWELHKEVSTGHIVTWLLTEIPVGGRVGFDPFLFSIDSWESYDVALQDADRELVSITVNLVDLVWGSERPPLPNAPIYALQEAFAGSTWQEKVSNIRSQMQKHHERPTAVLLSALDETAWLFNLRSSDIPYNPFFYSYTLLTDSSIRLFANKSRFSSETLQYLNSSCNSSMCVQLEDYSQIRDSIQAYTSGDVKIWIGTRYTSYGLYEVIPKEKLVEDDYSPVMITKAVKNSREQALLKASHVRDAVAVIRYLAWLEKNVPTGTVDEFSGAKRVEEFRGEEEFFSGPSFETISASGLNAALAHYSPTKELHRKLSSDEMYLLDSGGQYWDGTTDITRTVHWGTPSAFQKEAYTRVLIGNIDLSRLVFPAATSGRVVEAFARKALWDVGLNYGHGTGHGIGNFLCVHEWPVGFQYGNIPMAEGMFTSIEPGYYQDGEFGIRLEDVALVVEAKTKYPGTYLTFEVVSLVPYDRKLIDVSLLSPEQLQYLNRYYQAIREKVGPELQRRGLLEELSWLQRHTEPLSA

[2] = system: AmP; conditions: cited from earlier work
[3] = target: rat lung aminopeptidase P (rat) (UniProt Q99MA2); assay: cell-based or functional assay
[4] = target: T2, pulmonary endothelial AmP (Rattus norvegicus, UniProt Q99MA2); conditions: coinjected with tracer APPBz-3H
T2 sequence (Q99MA2 23-650): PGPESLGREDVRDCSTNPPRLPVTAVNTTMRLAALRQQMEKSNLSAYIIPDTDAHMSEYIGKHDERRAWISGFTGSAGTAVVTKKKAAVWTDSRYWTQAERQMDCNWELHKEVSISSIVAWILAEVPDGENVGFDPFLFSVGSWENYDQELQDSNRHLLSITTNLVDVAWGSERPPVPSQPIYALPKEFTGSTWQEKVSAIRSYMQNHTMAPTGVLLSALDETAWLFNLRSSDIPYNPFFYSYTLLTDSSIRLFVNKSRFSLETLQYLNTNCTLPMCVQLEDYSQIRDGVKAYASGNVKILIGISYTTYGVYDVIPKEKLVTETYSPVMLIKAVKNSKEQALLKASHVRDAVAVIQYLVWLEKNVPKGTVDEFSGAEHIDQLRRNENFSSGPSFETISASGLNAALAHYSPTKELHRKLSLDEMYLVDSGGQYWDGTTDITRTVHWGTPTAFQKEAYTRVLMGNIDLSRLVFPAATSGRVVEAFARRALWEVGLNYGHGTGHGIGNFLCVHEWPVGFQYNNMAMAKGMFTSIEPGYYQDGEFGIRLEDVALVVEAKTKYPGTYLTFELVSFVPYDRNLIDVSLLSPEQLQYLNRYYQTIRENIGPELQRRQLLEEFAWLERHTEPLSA
Description: (§1) The immediate metabolic fate of the AmP synthetic substrate Arg-Pro-Pro-[^3H]benzylamide (APPBz-^3H) (20 Ci/mmol) during a single transit from the right heart to the left was examined. Effects of increasing quantities of carrier APPBz and alternative AmP substrates such as bradykinin (BK) and des-Arg^9-BK (31) were then measured.

[5] = system: AmP and ACE; assay: Mean systemic arterial blood pressure effects of BK injected i.v. or i.a. (log dose-response curves)
Description: To the extent that pulmonary AmP contributes to BK inactivation, saturation of AmP with an inhibitor or alternative substrate should, in effect, potentiate blood pressure effects of i.v. BK.
To clarify relative contributions of ACE and AmP to the metabolic fate of BK administered i.v., blood pressure effects of i.v. BK under control conditions and then after administration of a long-acting ACE inhibitor, RAC-X-65, were compared. After ACE inhibition, BK was injected (i.v. and i.a.) alone or BK co-mixed with APPBz at a dose capable of saturating AmP (2 μmol/kg).

[6] = system: guinea pig serum AmP; conditions: in vitro; cited from earlier work
[7] = target: T2, pulmonary endothelial AmP; assay: in vivo; conditions: read-out: ED50: coinjected dose that reduces hydrolysis of APPBz-3H by half
Description: as §1

[8] = 2-3 sec, right to left side of the heart; cited from earlier work

CCOC(=O)OC(=O)OCC [diethylpyrocarbonate]
inactivation of pig kidney AmP [1]: completely inactivated

O=C(O)c1cc[c]([Hg+])cc1.[OH-] [p-hydroxy-mercuribenzoate]
inhibition of AmP ([2]; low concentration (~10 nM)): ~70%

Arg-Pro-Pro-benzylamide (peptide)
dose that completely inhibits the hydrolysis of coinjected APPBz-^3H [3]: 2 µmol/kg
dose that reduces by half the fractional hydrolysis of coinjected APPBz-^3H in a single pulmonary transit in vivo [3]: 42 nmol/kg b.w.

des-Arg^1-BK: BK fragment formed by AmP; not a substrate but binds to the catalytic site (PPGFSPFR)
ED50: coinjected dose that reduces hydrolysis of APPBz-3H by half [4]: 30 nmol/kg
affinity for AmP relative to BK [2]: as great an affinity for AmP as BK itself

des-Arg^9-BK: alternative AmP substrate, bradykinin lacking Arg9 (RPPGFSPF)
ED50: coinjected dose that reduces hydrolysis of APPBz-3H by half [4]: 107 nmol/kg

C[C@H](N[C@@H](CCC(=O)Nc1ccccc1)C(=O)O)C(=O)N1CCC[C@H]1C(=O)O (racemic) [RAC-X-65]
factor by which i.v. BK curves lay to the right of i.a. curves after ACE inhibition ([5]; after ACE inhibition): about four
effect of ACE inhibition on BK log dose-response curves ([5]; long-acting ACE inhibitor, BK i.v. and i.a.): shifted both i.v. and i.a. log dose-response curves leftward

CCN1C(=O)C=CC1=O [N-ethylmaleimide]
inhibition of AmP [2]: not inhibited

Gly-Pro-Hyp-Gly-Ala-Gly (GP[Hyp]GAG) [AAP, putative hormone called antiarrhythmic peptide]
binding of AAP by AmP [6]: high affinity

RPPGFSPFR [BK, Arg-Pro-Pro-Gly-Phe-Ser-Pro-Phe-Arg]
ED50 [7]: 0.013 µmol/kg
number of half-lifes BK is degraded through in a single transit [8]: 5-8 half-lifes
degradation of BK by AmP alone ([5]; computed from 4-fold potentiation, PF=2^n, less than three sec): 75%

des-Arg^9-bradykinin (peptide)
ED50 for inhibition of the hydrolysis of coinjected APPBz-^3H in vivo [3]: 107 nmol/kg

bradykinin (peptide)
dose that reduces by half the hydrolysis of coinjected APPBz-^3H in vivo [3]: 13 nmol/kg

NC(=O)CI [iodoacetamide]
inhibition of AmP [2]: not inhibited
